Converted amounts (≈) assume the structure as drawn.
Key:
Assay type in all cases: cell-based
[1] = test system: E. coli DPD2444 (yhcP−); assay: microbe, parasite or virus in culture; settings: for MIC, DPD2444 (yhcP−): 16 to 18 hours at 37° C., 0.01% tetrazolium violet; for Fold Diff: MIC MG1655 versus MIC DPD2444; for MIC: Escherichia coli, read-out: MIC, DPD2444 (yhcP−); for defined as substrate of the YhcP efflux pump by this genetic test: MIC difference at least 2-fold and rank at least 2
Procedure: (§1) Additional compounds were tested for growth inhibition of E. coli MG1655 (yhcP^+) and DPD2444 (yhcP^−) in Vogel-Bonner medium with glucose as the carbon source and with 0.01% tetrazolium violet added as an indicator of viability. A series of two-fold dilutions of each chemical was made to the wells of a clear 96-well microplate in 50 μl volume. To these wells was added 50 μl of an overnight culture in Vogel Bonner medium with glucose as a carbon source of either MG1655 or DPD2444 that had been previously diluted 500-fold into fresh medium. The plates were incubated at 37° C. without shaking for 16 to 18 hours. The purple color in each well was visually scored. A score of 4+ indicated full purple color equivalent to a no chemical control well. Scores of 3+, 2+, or 1+ indicated decreasing amounts of purple color. A score of − indicated the complete absence of color. The MIC was defined as the lowest tested concentration that gave complete absence of color. The rank of difference between strains was defined as the score of pigment color for E. coli MG1655 in wells containing the concentration of a given chemical at the MIC for DPD24444. When MG1655 had no color, the score was 0. When MG 1655 was scored at 1+, the score was 1, when scored at 2+, the score was 2, etc.

[2] = test system: E. coli MG1655 (yhcP+); assay: microbe, parasite or virus in culture; settings: for MIC, MG1655 (yhcP+): 16 to 18 hours at 37° C., 0.01% tetrazolium violet; for Rank Diff: score of pigment color for MG1655 at the MIC for DPD2444 (0 = no color, 4 = full purple color); for MIC: Escherichia coli, MG1655, read-out: MIC, MG1655 (yhcP+)
Procedure: as §1

[3] = test system: E. coli strain DPD2444 (yhcP−, strain 16) compared with MG1655 (yhcP+, strain 14); assay: Phenotype MicroArray chemical sensitivity test (Biolog)
Procedure: To further define substrates of this efflux system, other molecules were tested with this genetic test. […] E. coli strains DPD2444 (yhcP^−) and MG1655 (yhcP^+) were tested for inhibition by a large number of chemicals at Biolog Inc. (Hayward, Calif.) using the Phenotype MicroArray™ 1-20. The basis of this technology has been described in a recent publication (Bochner et al., Genome Res., 11:1246-1255 (2001)). The chemical sensitivity test was done with 240 compounds at 4 concentrations each. These chemicals included aromatic and heterocyclic molecules, such as acriflavin, dichloro-8-hydroxyquinoline, 9-aminoacridine, fusaric acid, salicylic acid, phenylethanol, o-cresol, m-cresol, p-cresol, pentachlorophenol, coumarin, DL 3-phenyl lactic acid, and cinnamic acid. Also included were numerous antibiotics and other antimicrobial compounds, including several weak acids and other compounds that would disrupt proton flux. Cinnamic acid was the only compound of the 240 tested for which strain DPD2444 was hypersensitive as compared with MG1655. The report regarding the increased sensitivities of strain DPD2444 (strain 16) compared with MG1655 (strain 14) is quoted below in Table 6.

[4] = test system: yhcP gene (co-transcribed with yhcQ and yhcR); assay: expression of yhcP upon treatment of E. coli cells with aromatic carboxylic acids
[5] = test system: E. coli strain MG1655; assay: MIC, 2-fold dilutions, Vogel-Bonner medium with 0.4% glucose; settings: Escherichia coli, overnight at 37° C., read-out: MIC for pHCA
Text: (§2) The yhcP::TN<Kan> was introduced into E. coli strain MG1655 (obtained from Prof. Douglas Berg, Washington University School of Medicine, St. Louis, […].) by P1clr100 Cm mediated transduction to kanamycin resistance using phage lysates of E. coli strain DPD2443. One of the resultant kanamycin resistant transductants was named DPD2444.

[6] = test system: E. coli strain DPD2444 (yhcP::TN<Kan>); assay: as above; settings: Escherichia coli, read-out: MIC for pHCA
Text: as §2

[7] = test system: E. coli strain DPD3313 (MG1655 with pTrcHis2TOPO®/lacZ); assay: pHCA MIC, 2-fold dilutions, Vogel-Bonner medium with 0.4% glucose; settings: Escherichia coli, no IPTG, overnight at 37° C.
Procedure: (§3) The pHCA MICs for E. coli strains DPD3313 and DPD3314 were determined. […] IPTG was not added to the medium because the trc promoter has substantial activity in its absence.

[8] = test system: E. coli strain DPD3314 (MG1655 with pDEW668, multicopy yhcRQP); assay: as above
Procedure: as §3

[9] = test system: E. coli strain DPD4057 (MG1655 with pDEW668, multicopy yhcRQP); assay: growth and CFU/ml in defined medium containing pHCA
Procedure: (§4) The plasmid pDEW668 (described in Example 2) that carries the E. coli yhcRQP pHCA efflux system was moved by transformation into E. coli strain MG1655 obtained from the American Type Culture Collection, Manassas, Va. (ATCC #700926. lot # 2660700) to form strain DPD4057. For a control, plasmid pTrcHis2TOPO®/lacZ was also put into the same host strain, making strain DPD4055. E. coli strains DPD4055 and DPD4057 were grown overnight at 37° C. in a defined medium made with 4 g/l (NH4)2SO4, 1.26 g/l KH2PO4, 2.42 g/l K2HPO4, 0.5 g/l MgSO4.7H2O, 30 mM MOPSO, pH 7.0, 1 mg/l thiamin, 50 mg/l citric acid, 7.5 mg/l CaCl2.2H2O, 25 mg/l FeSO4.7H2O, 1.95 mg/l ZnSO4.7H2O, 1.9 mg/l CuSO4.5H2O, 1.0 mg/l CoCl2.6H2O, 1.5 mg/l MnCl2.4H2O, 7.5 g/l glucose, and 25 μg/ml ampicillin. The next day, tubes with 1.0 ml of the same medium containing 7.5, 5.0, 3.3, 2.2, 1.5, or 0 g/l pHCA were inoculated with 10 μl of the overnight cultures. These tubes were grown at 37° C. on a roller drum in the dark for 1 to 2 days. At 21 hours after inoculation, the tube with 5.0 g/l pHCA inoculated with DPD4057 had visible growth. In contrast, strain DPD4055 had visible growth at 2.2 g/l pHCA, but not higher.
(§5) At 48 hours of incubation, the CFU/ml of the cultures growing in the presence of 7.5 g/l pHCA was determined by plating dilutions onto LB plates. Strain DPD4055 had 2×10^2 CFU/ml. Strain DPD4057 had 8×10^7 CFU/ml. The inoculum for each culture was 2×10^7 CFU/ml. […] In contrast, the culture carrying multicopy yhcRQP increased in CFU/ml.

[10] = test system: E. coli strain DPD4055 (MG1655 with pTrcHis2TOPO®/lacZ); assay: as above
Procedure: as §4, §5

Row | SMILES | MIC, DPD2444 (yhcP−) [1] | Fold Diff [1] | MIC, MG1655 (yhcP+) [2] | Rank Diff [2] | MIC [1] [mM] | MIC [2] [mM] | also measured
1 | O=C(O)c1ccc(C(=O)O)c2ccccc12 [1,4-naphthalenedicarboxyylic acid] | 10 mM (≈ 2160 µg/mL) | 1 | 10 mM (≈ 2160 µg/mL) | 0 | – | – | –
2 | Oc1cccc2c(O)cccc12 [1,5-dihydroxynaphthalene] | – | 2 | – | 1 | 0.25 (≈ 40 µg/mL) | 0.5 (≈ 80.1 µg/mL) | –
3 | Oc1ccc2c(O)cccc2c1 [1,6-dihydroxynaphthalene] | – | 2 | – | 1 | 0.25 (≈ 40 µg/mL) | 0.5 (≈ 80.1 µg/mL) | –
4 | O=C(O)c1ccc2ccccc2c1O [1-hydroxy-2-naphthoic acid] | – | 1 | – | 0 | 0.62 (≈ 117 µg/mL) | 0.62 (≈ 117 µg/mL) | –
5 | O=C(O)c1cccc2ccccc12 [1-naphthoic acid] | – | 1 | – | 0 | 2.5 (≈ 430 µg/mL) | 2.5 (≈ 430 µg/mL) | –
6 | O=C(O)c1cccc(O)c1O [2,3-dihydroxybenzoic acid] | – | 1 | – | 0 | 10 (≈ 1540 µg/mL) | 10 (≈ 1540 µg/mL) | –
7 | O=C(O)c1cc2ccccc2cc1C(=O)O [2,3-naphthalenedicarboxylic acid] | – | 1 | – | 0 | 80 (≈ 17300 µg/mL) | 80 (≈ 17300 µg/mL) | –
8 | COc1cccc(OC)c1O [2,6-dimethoxyphenol] | – | 1 | – | 0 | 5 (≈ 771 µg/mL) | 5 (≈ 771 µg/mL) | –
9 | Oc1ccc2ccc(O)cc2c1 [2,7-dihydroxynaphthalene] | – | 2 | – | 1 | 0.31 (≈ 49.7 µg/mL) | 0.62 (≈ 99.3 µg/mL) | –
10 | O=C(O)c1ccccc1-c1ccccc1 [2-biphenylcarboxylic acid] | – | 1 | – | 0 | 2.5 (≈ 496 µg/mL) | 2.5 (≈ 496 µg/mL) | –
11 | O=C(O)C=Cc1ccccc1O [2-hydroxycinnamate] | 10 mM (≈ 1640 µg/mL) | 2 | 20 mM (≈ 3280 µg/mL) | 2 | – | – | defined as substrate of the YhcP efflux pump by this genetic test [1]: substrates of the YhcP efflux pump
12 | O=C(O)c1ccc2ccccc2c1 [2-naphthoic acid] | – | 2 | – | 1 | 10 (≈ 1720 µg/mL) | 20 (≈ 3440 µg/mL) | –
13 | O=C(O)C=Cc1ccc(O)c(O)c1 [3,4-dihydroxycinnamate] | 0.62 mM (≈ 112 µg/mL) | 1 | 0.62 mM (≈ 112 µg/mL) | 0 | – | – | –
14 | COc1cc(C=CC(=O)O)cc(OC)c1O [3,5-dimethoxy-4-hydroxycinnamate] | 10 mM (≈ 2240 µg/mL) | 1 | 10 mM (≈ 2240 µg/mL) | 0 | – | – | –
15 | O=C(O)c1cc2ccccc2cc1O [3-hydroxy-2-naphthoic acid] | – | 1 | – | 0 | 1.2 (≈ 226 µg/mL) | 1.2 (≈ 226 µg/mL) | –
16 | O=C(O)c1ccc2cc(O)ccc2c1 [6-hydroxy-2-naphthoic acid] | – | 8 | – | 3 | 2.5 (≈ 470 µg/mL) | 20 (≈ 3760 µg/mL) | defined as substrate of the YhcP efflux pump by this genetic test [1]: substrates of the YhcP efflux pump
17 | O=C(O)c1ccccc1 [Benzoate] | 25 mM (≈ 3050 µg/mL) | 1 | 25 mM (≈ 3050 µg/mL) | 0 | – | – | –
18 | O=C(O)C=Cc1ccccc1 [CA, cinnamic acid] | – | 2 | – | 1 | 10 (≈ 1480 µg/mL) | 20 (≈ 2960 µg/mL) | difference in growth inhibition of the two strains (in words) ([1]; MG1655 versus DPD2444): slight difference; sensitivity of strain DPD2444 as compared with MG1655 (in words) ([3]; 240 compounds at 4 concentrations each): hypersensitive; Phenotypes Lost - Slower Growth/Sensitivity: Difference ([3]; PM19, well C 11, Strain 16 (DPD2444) vs Strain 14 (MG1655)): −83; expression of the yhcP gene upon treatment of E. coli cells [4]: highly upregulated
19 | COC(=O)c1ccc(O)cc1 [Methyl paraben] | – | 1 | – | 0 | 3.8 (≈ 578 µg/mL) | 3.8 (≈ 578 µg/mL) | –
20 | O=C(O)c1ccccc1O [Salicylate] | 100 mM (≈ 13800 µg/mL) | 1 | 100 mM (≈ 13800 µg/mL) | 0 | – | – | –
21 | C=C1CCOC1=O [Tulipalin] | 0.008% | 1 | 0.008% | 0 | – | – | –
22 | C[S+](C)[O-] [dimethyl sulfoxide (DMSO), dimethyl sulfoxide] | 20% | 1 | 20% | 0 | – | – | –
23 | O=C(O)C=Cc1ccc(O)cc1 [pHCA, para-hydroxycinnamic acid] | – | 4 | – | 2 | 10 (≈ 1640 µg/mL) | 40 (≈ 6570 µg/mL) | MIC [5]: 50 mM (≈ 8210 µg/mL); MIC [6]: 12 mM (≈ 1970 µg/mL); defined as substrate of the YhcP efflux pump by this genetic test [1]: substrates of the YhcP efflux pump; MIC [7]: 50 mM (≈ 8210 µg/mL); increased resistance to pHCA by multicopy expression of the yhcRQP operon ([8]; DPD3314 versus DPD3313): two-fold; MIC ([8]; Escherichia coli, MG1655, read-out: MIC for pHCA): 100 mM (≈ 16400 µg/mL); expression of the yhcP gene upon treatment of E. coli cells [4]: highly upregulated; CFU/ml of culture in the presence of pHCA ([9]; 7.5 g/l pHCA, 48 hours, DPD4057, inoculum 2×10^7 CFU/ml): 8×10^7 CFU/ml; pHCA concentration with visible growth ([9]; 21 hours after inoculation, defined medium, 37° C., DPD4057, tested 7.5, 5.0, 3.3, 2.2, 1.5 g/l): 5.0 g/l; fold improvement in pHCA tolerance by multicopy expression of yhcRQP ([9]; DPD4057 versus DPD4055, 21 hours): 2.3 fold; effect of pHCA on the strain without the multicopy yhcRQP genes (in words) ([10]; 7.5 g/l pHCA, 48 hours): bactericidal effect; CFU/ml of culture in the presence of pHCA ([10]; 7.5 g/l pHCA, 48 hours, DPD4055, inoculum 2×10^7 CFU/ml): 2×10^2 CFU/ml; pHCA concentration with visible growth, but not higher ([10]; 21 hours after inoculation, defined medium, 37° C., DPD4055, tested 7.5, 5.0, 3.3, 2.2, 1.5 g/l): 2.2 g/l
